Data as given in patent US20240327331A1, “ESTERS OF 7-COOH CBD DERIVATIVES AND THEIR USE AS PREVENTION, PROPHYLAXIS OF PROGRESSION, AND/OR TREATMENT OF NEUROGENERATIVE DISEASES” (Receptor Pharma INC, priority 2021, published 2024).

What was measured:
GPR3 receptor [1] = target: T1, GPR3 receptor (Homo sapiens, UniProt P46089); experiment: PathHunter β-arrestin2 recruitment assay in CHO-K1 cells expressing GPR3-PK; assay type: cell-based; set-up: host or cells: CHO-K1 (PathHunter eXpress kit); settings: for mode of action at the GPR3 receptor (β-arrestin2 recruitment): 0.1 μM, 1 μM and 10 μM, FIG. 1
T1 sequence (P46089 whole entry): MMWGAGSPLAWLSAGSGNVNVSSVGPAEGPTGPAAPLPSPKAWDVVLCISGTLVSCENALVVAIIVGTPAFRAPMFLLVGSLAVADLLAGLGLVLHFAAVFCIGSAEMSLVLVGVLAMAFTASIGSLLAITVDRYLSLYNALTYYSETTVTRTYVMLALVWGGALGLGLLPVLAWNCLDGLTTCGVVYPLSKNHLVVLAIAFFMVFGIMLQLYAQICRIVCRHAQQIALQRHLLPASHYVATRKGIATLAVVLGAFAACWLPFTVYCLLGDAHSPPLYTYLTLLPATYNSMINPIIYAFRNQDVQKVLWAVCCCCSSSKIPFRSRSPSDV
Source text: The PathHunter™ eXpress kits containing Chinese hamster ovary (CHO)-K1 cells co-expressing EA-O-arrestin2 human and GPR3-PK were purchased from DiscoverX (Fremont, CA). All cannabinoid ligands were purchased from BDG Synthesis (Wellington, New Zealand).
PathHunter™ eXpress kits were used to measure GPR3-mediated β-arrestin2 recruitment following manufacturer's instructions. In this system, Chinese hamster ovary (CHO)-K1 cell line are stably expressing the GPR3 receptors which were fused to a “ProLink (PK)” fragment of βi-galactosidase to form GPR3-PK. The remaining sequence of β-galactosidase enzyme acceptor (EA) was linked to β-arrestin2 to form EA-β-arrestin2. Recruitment of Si-arrestin2 by receptor activation causes complementation of the two enzyme fragments. Levels of the active enzyme are the direct result of β-arrestin2 recruitment caused by receptor activation and quantified using the PathHunter detection reagent containing β-galactosidase substrates. Cells were plated in DiscoverX cell plating reagent1 in 384-well plates and cultured for 24-48 hours prior to experimentation in a humidified atmosphere at 37° C. and 5% CO2. Cannabinoid ligands were diluted in DiscoverX cell plating reagent1. Cells were then incubated with ligand at 37° C. following manufacturer's recommendations, followed by incubation with detection reagent in the dark for 1 hour at 23° C. Luminescence signal was then detected using a TECAN GENios Pro microplate reader.
Ligand-induced changes in R-arrestin2 recruitment to GPR3 were expressed as percent basal relative luminescence units, which was calculated by dividing luminescence readings in the presence of ligands by basal luminescence readings, times 100. Concentration-response curves were generated by performing nonlinear regression analysis using GraphPad Prism (GraphPad Software, La Jolla, CA). Data were analyzed using one-way analysis of variance (ANOVA) followed by NewmanKeuls post-test. Data points shown are presented as mean±SEM, and were obtained from three independent experiments performed in quadruplicate.
To determine whether CBD and its human metabolites 6-OH-CBD, 7-OH-CBD and 7-COOH-CBD are capable of changing S3-arrestin2 recruitment to GPR3, β-arrestin2 recruitment assays were performed using 0.1 μM and 1 μM and 10 μM concentrations.

GPR3 receptor [2] = target: T1, GPR3 receptor; settings: cited from earlier work; for mode of action at the GPR3 receptor: Laun and Song 2017, Lunn et al 2006
[3] = after CBD, in the body; cited from earlier work
[4] = tested on: CB1 and CB2 receptors as well as the voltage gated Na channel and mono-amine transporters; settings: physiological relevant concentrations; cited from earlier work
[5] = tested on: icv streptozotocin (stz) rat model of Alzheimer Disease; experiment: Novel object recognition test in icv streptozotocin rat model of Alzheimer Disease; assay type: in vivo, Wistar rats; settings: STZ 3 mg/kg icv, daily treatment 8 days, test after 24 h; 1j 25 mg/kg ip, 7-COOH-CBD 20 mg/kg; N=6
Source text: This in vivo model represents a model for the most frequent form of Alzheimer Disease, the late onset or ‘sporadic’ form. The icv injection of stz in the rat brain induces pathological changes that are observed in patients with Alzheimer Disease, like accumulation of beta-amyloid and Tau-protein and the well-known cognitive impairment. This well-known model was first described in the 90-ies by Mayer et al. (1990) and Lannert et al. (1998). The procedure for the creation of the model has recently been described in detail by Moreiro-Silva et al. (2019). In short, a 1-3 mg/kg dose of stz is injected bilateraly by icv injection in Wistar rats, and the animals are allowed to recover for a period of 7 days, after which animals can be evaluated for neurodegenerative changes in behaviour and/or by imaging of the brain.
The novel object recognition data were analyzed using the Student's t-test, with differences being considered significant if p<0.05.
On day 8, the animals were subjected to the novel object recognition (NOR) behavioural test. All objects used for the is test had similar textures, colors, and sizes but distinctive shapes. The rats were placed in a rectangular arena (76×49×57 cm) containing two identical objects (A1+A2) for the habituation and training phase. […] The discrimination index was calculated by: […]

[6] = tested on: animal models of epilepsy; settings: cited from earlier work

Compound | mode of action at the GPR3 receptor (β-arrestin2 recruitment) (GPR3 receptor [1]) | mode of action at the GPR3 receptor (GPR3 receptor [2]) | long-term memory index (discrimination index), novel object recognition [5] | anticonvulsant action [6] | also measured
C=C(C)[C@@H]1CCC(C)=C[C@H]1c1c(O)cc(CCCCC)cc1O [CBD, Cannabidiol] | inverse agonist | inverse agonist | – | – | IC50 (GPR3 receptor [2]; inverse agonism): 1220 nM; inhibition of GPR3 receptor activity (GPR3 receptor [2]; inverse agonist, dose-dependent): 39%
C=C(C)[C@@H]1C[C@H](O)C(C)=C[C@H]1c1c(O)cc(CCCCC)cc1O [Example 6-OH-CBD] | weak agonists | – | – | – | –
C=C(C)[C@@H]1CCC(C(=O)O)=C[C@H]1c1c(O)cc(CCCCC)cc1O [Example 7-COOH-CBD, (3R-trans)-3-(2,6-dihydroxy-4-pentylphenyl)-4-(1-methylethenyl)-1-cyclohexene-1-carboxylic acid] | full antagonist | – | 79.6±3.4 | devoid of any anticonvulsant action | plasma levels of metabolite relative to parent compound CBD [3]: up to 50 fold; competition with SR144528 at the GPR3 binding site (GPR3 receptor [1]; 10 μM 7-COOH-CBD, ascending concentrations of SR144528): displaces the inverse agonist from the GPR3 binding site; binding or modulation in in vitro binding/target panel [4]: no binding or modulation properties
C=C(C)[C@@H]1CCC(CO)=C[C@H]1c1c(O)cc(CCCCC)cc1O [Example 7-OH-CBD, 7-hydroxy-CBD] | weak agonists | – | – | equipotency to CBD | plasma levels of metabolite relative to plasma levels of parent compound CBD [3]: about 50%
COc1ccc(S(=O)(=O)c2cc(OC)ccc2S(=O)(=O)c2ccc([C@H](C)NS(C)(=O)=O)cc2)cc1 [Sch.336, N-[1(S)-[4-[[4-methoxy-2-[(4-methoxyphenyl)sulfonyl]phenyl]-sulfonyl]phenyl]ethyl]methanesulfonamide] | – | inverse agonist | – | – | –
(3R-trans)-3-(2,6-dihydroxy-4-pentylphenyl)-4-(1-methylethenyl)-1-cyclohexene-1-carboxylic acid cyclopropane ester [Example 1j] | – | – | 80.5±3.9 | – | –
